Assay results reported in patent publication US20130210167A1, “IMMUNOASSAY FOR PYRROLIDINOPHENONES” (RANDOX LABORATORIES LIMITED, priority 2012, published 2013).
Counter-ions that a name gives are not always drawn.

What follows are compounds tested on polyclonal antibody raised to Immunogen IV (assay: Competitive biochip immunoassay of pyrrolidinophenones and potential cross-reactants (Evidence Investigator)). Settings: not given.
Assay type: binding, sheep
With `COc1cc(CC(C)N)cc(OC)c1OC.Cl` (racemic) [(+/−)-3,4,5-Trimethoxyamphetamine hydrochloride] the “% Cross-reactivity” value was <1%. `CCCC(C(=O)c1ccc2ccccc2c1)N1CCCC1.Cl` (racemic) [(RS)-1-(2-Naphthyl)-2-(pyrrolidin-l-yl)pentanone HCl] was tested, and the “% Cross-Reactivity” value was 44%. `CCCCC(C(=O)c1ccc(C)cc1)N1CCCC1.Cl` (racemic) [(RS)-1-(4-Methylphenyl)-2-(pyrrolidin-1-yl)hexanone HCl] was tested, and the “% Cross-reactivity” value was 48.4%. For `CCC(C(=O)c1ccc(C)cc1)N1CCCC1.Cl` (racemic) [(RS)-1-(4-Methylphenyl)-2-(pyrrolidin-l-yl)butanone HCl], the “% Cross-Reactivity” value was 34%. In the case of `CCC(C(=O)c1ccc2c(c1)OCO2)N1CCCC1` (racemic) [(RS)-1-(Benzo[d][1,3]dioxol-5-yl)-2-(pyrrolidin-1-yl)butanone HCl], the “% Cross-Reactivity” value is reported as 192%. For `CCCC(C(=O)c1ccc2c(c1)OCO2)N1CCCC1.Cl` (racemic) [(RS)-1-(Benzo[d][1,3]dioxol-5-yl)-2-(pyrrolidin-1-yl)pentanone HCl], the “% Cross-Reactivity” value was 100% and the “% Cross-reactivity” value was 100%. `CC(C(=O)c1ccc2c(c1)OCO2)N1CCCC1.Cl` (racemic) [(RS)-1-(Benzo[d][1,3]dioxol-5-yl)-2-(pyrrolidin-1-yl)propanone HCl] was tested, and the “% Cross-Reactivity” value was 12%. With `CNC(C)Cc1ccc2c(c1)OCO2` (racemic) [(RS)-1-(Benzo[d][1,3]dioxol-5-yl)-N-methylpropan-2-amine] the “% Cross-Reactivity” value was <1%. With `CC(N)Cc1ccc2c(c1)OCO2` (racemic) [(RS)-1-(benzo[d][1,3]dioxol-5-yl)propan-2-amine] the “% Cross-Reactivity” value was <1%. `Cl.NC1(c2ccccc2Cl)CCCCC1=O` (racemic) [(±)-Norketamine HCl] was tested, and the “% Cross-reactivity” value was <1%. For `CCCC(C(=O)c1ccc(C)cc1)N1CCCC1` (racemic) [Pyrovalerone HCl, (RS)-1-(4-methylphenyl)-2-(1-pyrrolidinyl)pentan-1-one], the “% Cross-reactivity” value was 44.4%. For `CCC(=O)OC(Cc1ccccc1)(c1ccccc1)C(C)CNC.O=C(O)/C=C\C(=O)O` (single isomer, unassigned; (+)) [(+)-Norpropoxyphene maleate], the “% Cross-reactivity” value was <1%. `CN1CCCC1c1cccnc1` (single isomer, unassigned; (-)) [(−)-Nicotine] was tested, and the “% Cross-reactivity” value was <1%. In the case of `Oc1ccccc1O` [1,2 Dihydroxybenzene (Catechol), 1,2 Dihydroxybenzene], the “% Cross-reactivity” value is reported as <1%. With `Cl.c1ccc(C2(N3CCCCC3)CCCCC2)cc1` [1-(1-phenylcyclohexyl)piperidine) HCl] the “% Cross-reactivity” value was <1%. For `Cl.Clc1cccc(N2CCNCC2)c1` [1-(3-Chlorophenyl)piperazine HCl], the “% Cross-Reactivity” value was <1%. In the case of `CN1CCN(Cc2ccccc2)CC1.Cl.O` [1-Benzyl-4-methylpiperazine HCl monohydrate], the “% Cross-reactivity” value is reported as <1%. In the case of `c1ccc(CN2CCNCC2)cc1` [1-Benzylpiperazine], the “% Cross-Reactivity” value is reported as <1%. For `CN1C(=O)CN=C(c2ccccc2F)c2cc(N)ccc21` [7-NH Flunitrazepam], the “% Cross-reactivity” value was <1%. For `CN[C@@H](C)[C@@H](O)c1ccccc1.Cl` [(+)-Pseudoephedrine HCl], the “% Cross-Reactivity” value was <1%. For `CN1C(=O)CC[C@H]1c1cccnc1` [(−)-Cotinine], the “% Cross-reactivity” value was <1%. `CC(=O)Nc1ccc(O)cc1` [Acetaminophen] was tested, and the “% Cross-reactivity” value was <1%. With `CC(NC(C)(C)C)C(=O)c1cccc(Cl)c1` (stereo not shown) [Bupropion HCl] the “% Cross-reactivity” value was <1%. For `CCC(NC)C(=O)c1ccc2c(c1)OCO2.Cl` (stereo not shown) [Butylone HCl], the “% Cross-reactivity” value was 11.4% and the “binding of antibodies of the invention (in words)” value was “able to bind”. For `C[C@H](N)Cc1ccccc1` [D-Amphetamine], the “% Cross-Reactivity” value was <1%. `COc1ccc2c(c1)[C@]13CCCC[C@@H]1[C@H](C2)N(C)CC3` [Dextromethorphan hydrobromide monohydrate] was tested, and the “% Cross-reactivity” value was <1%. `CCN(CC)C(C)C(=O)c1ccccc1` (stereo not shown) [Diethylpropion HCl] was tested, and the “% Cross-reactivity” value was <1%. In the case of `CCO[C@@H]1O[C@H](C(=O)O)[C@@H](O)[C@H](O)[C@H]1O` [Ethyl-glucuronide], the “% Cross-reactivity” value is reported as <1%. `CNC(C)C(=O)c1ccc(F)cc1.Cl` (stereo not shown) [Flephedrone HCl] was tested, and the “% Cross-reactivity” value was <1%. For `CNCCC(Oc1ccc(C(F)(F)F)cc1)c1ccccc1` (stereo not shown) [Fluoxetine HCl], the “% Cross-reactivity” value was <1%. `O=C(CCCN1CCC(O)(c2ccc(Cl)cc2)CC1)c1ccc(F)cc1` [Haloperidol] was tested, and the “% Cross-reactivity” value was <1%. In the case of `CC(=O)Oc1ccc2c3c1O[C@H]1[C@@H](OC(C)=O)C=C[C@H]4[C@@H](C2)N(C)CC[C@@]341` [Heroin], the “% Cross-reactivity” value is reported as <1%. In the case of `COc1ccc2c3c1O[C@H]1C(=O)CC[C@H]4[C@@H](C2)N(C)CC[C@]314` [Hydrocodone], the “% Cross-reactivity” value is reported as <1%. `CC(C)Cc1ccc(C(C)C(=O)O)cc1` (stereo not shown) [Ibuprofen] was tested, and the “% Cross-reactivity” value was <1%. In the case of `CCCCCn1cc(C(=O)c2cccc3ccccc23)c2ccccc21` [JWH-018], the “% Cross-Reactivity” value is reported as <1%. In the case of `CCCCCn1cc(C(=O)Cc2ccccc2OC)c2ccccc21` [JWH-250], the “% Cross-Reactivity” value is reported as <1%. `CCN(CC)C(=O)[C@@H]1C=C2c3cccc4[nH]cc(c34)C[C@H]2N(C)C1` [LSD] was tested, and the “% Cross-reactivity” value was <1%. For `O=C1Nc2ccc(Cl)cc2C(c2ccccc2Cl)=NC1O` (stereo not shown) [Lorazepam], the “% Cross-reactivity” value was <1%. `CNC(C)C(=O)c1ccc(C)cc1` (stereo not shown) [Mephedrone HCl] was tested, and the “% Cross-Reactivity” value was <1%. In the case of `CCCC(C)(COC(N)=O)COC(N)=O` [Meprobamate], the “% Cross-reactivity” value is reported as <1%. `COc1cc(CCN)cc(OC)c1OC` [Mescaline HCl] was tested, and the “% Cross-Reactivity” value was <1%. For `CCC(=O)C(CC(C)N(C)C)(c1ccccc1)c1ccccc1` (stereo not shown) [Methadone], the “% Cross-reactivity” value was <1%. `CN[C@@H](C)Cc1ccccc1` [Methamphetamine HCl] was tested, and the “% Cross-Reactivity” value was <1%. For `Cc1ccccc1-n1c(C)nc2ccccc2c1=O` [Methaqualone], the “% Cross-reactivity” value was <1%. `CNC(C)C(=O)c1ccc2c(c1)OCO2` (stereo not shown) [Methylone HCl] was tested, and the “% Cross-reactivity” value was <1%. For `COC(=O)C(c1ccccc1)C1CCCCN1` (stereo not shown) [Methylphenidate HCl], the “% Cross-reactivity” value was <1%. In the case of `C=CCN(CC=C)CCc1c[nH]c2ccc(OC)cc12` [N,N-diallyl-5-methoxytryptamine], the “% Cross-reactivity” value is reported as <1%. In the case of `Cc1ccc(C(=O)C(C)N)cc1.Cl` (stereo not shown) [Nor-mephedrone HCl], the “% Cross-reactivity” value is reported as <1%. With `CNCCCC1(c2ccc(F)cc2)OCc2cc(C#N)ccc21` (stereo not shown) [Norescitalopram] the “% Cross-reactivity” value was <1%. In the case of `CCOC(=O)C1(c2ccccc2)CCNCC1` [Normeperidine], the “% Cross-reactivity” value is reported as <1%. For `CNCCC=C1c2ccccc2CCc2ccccc21` [Nortriptyline HCl], the “% Cross-reactivity” value was <1%. In the case of `COc1ccc2c3c1O[C@H]1C(=O)CC[C@@]4(O)[C@@H](C2)N(C)CC[C@]314` [Oxycodone], the “% Cross-reactivity” value is reported as <1%. In the case of `CCCC(NC)C(=O)c1ccccc1.Cl` (stereo not shown) [Pentedrone HCl], the “% Cross-reactivity” value is reported as <1%. For `CCCC(NC)C(=O)c1ccc2c(c1)OCO2.Cl` (stereo not shown) [Pentylone HCl], the “% Cross-reactivity” value was 17.4% and the “binding of antibodies of the invention (in words)” value was “able to bind”. With `NCCc1ccccc1.O=S(=O)(O)O` [Phenethylamine sulphate] the “% Cross-reactivity” value was <1%. For `O=C(O)c1ccccc1O` [Salicylic acid], the “% Cross-reactivity” value was <1%. With `COC(=O)[C@@H]1C[C@H](OC(C)=O)C(=O)[C@H]2[C@@]1(C)CC[C@H]1C(=O)O[C@H](c3ccoc3)C[C@]21C` [Salvinorin A] the “% Cross-Reactivity” value was <1%. With `CN[C@H]1CC[C@@H](c2ccc(Cl)c(Cl)c2)c2ccccc21` [Sertraline HCl] the “% Cross-reactivity” value was <1%. In the case of `COc1cccc(C2(O)CCCCC2CN(C)C)c1` (stereo not shown) [Tramadol HCl], the “% Cross-reactivity” value is reported as <1%. With `Cl.O=c1n(CCCN2CCN(c3cccc(Cl)c3)CC2)nc2ccccn12` [Trazadone HCl] the “% Cross-reactivity” value was <1%. For `CCN(C(C)=O)c1cccc(-c2ccnc3c(C#N)cnn23)c1` [Zaleplon], the “% Cross-reactivity” value was <1%. For `Cc1ccc(-c2nc3ccc(C)cn3c2CC(=O)N(C)C)cc1` [Zolpidem tartrate], the “% Cross-reactivity” value was <1%. With `CN1CCN(C(=O)OC2c3nccnc3C(=O)N2c2ccc(Cl)cn2)CC1` (stereo not shown) [Zopiclone] the “% Cross-reactivity” value was <1%. (−)-11-nor-9-Carboxy-delta9-THC was tested, and the “% Cross-reactivity” value was <1%. (−)-Delta9-THC was tested, and the “% Cross-reactivity” value was <1%. In the case of Dihydroxymephedrone HCl, the “% Cross-reactivity” value is reported as <1%. With Prolatine the “% Cross-reactivity” value was <1%.

Same assay, conditions: Table 2, further cross-reactivity results; competition with Hapten-A HRP conjugate
With `O=C(CN1CCCC1)c1ccccc1` [1-Phenyl-2(1-pyrrolidinyl)ethanone] the “% Cross-reactivity” value was <1%. For `O=C(O)c1c[nH]c2ccccc12` [Indole-3-carboxylic acid], the “% Cross-reactivity” value was <1%. With `O=C(O)[C@H]1O[C@@H](OCC(Cl)(Cl)Cl)[C@H](O)[C@@H](O)[C@@H]1O` [Urochloralic acid] the “% Cross-reactivity” value was <1%.
